Experimental data as given in US7605165B2, “Phenylalanine derivatives” (Ajinomoto Co., Inc., priority 2002, dated 2009).

Key:
[1] = molecular target: T1, integrin α4β7 (Homo sapiens, UniProt P13612+P26010); assay: Assessment of VCAM-1/α4β7 binding antagonistic activity (RPMI-8866 cells binding to VCAM-1); format: cell-based; conditions: RPMI-8866 human B lymphoma cells binding to recombinant human VCAM-1, binding buffer with 4 mM MnCl2; read-out: integrin VCAM/α4 binding antagonistic activity (IC50) α4β7
T1 construct: lymphoma cell strain RPMI-8866 of human B cells, known to express integrin α4β7; endogenous in cells; host or cells: RPMI-8866, human B-cell lymphoma line
T1 sequence (P13612 34-1032): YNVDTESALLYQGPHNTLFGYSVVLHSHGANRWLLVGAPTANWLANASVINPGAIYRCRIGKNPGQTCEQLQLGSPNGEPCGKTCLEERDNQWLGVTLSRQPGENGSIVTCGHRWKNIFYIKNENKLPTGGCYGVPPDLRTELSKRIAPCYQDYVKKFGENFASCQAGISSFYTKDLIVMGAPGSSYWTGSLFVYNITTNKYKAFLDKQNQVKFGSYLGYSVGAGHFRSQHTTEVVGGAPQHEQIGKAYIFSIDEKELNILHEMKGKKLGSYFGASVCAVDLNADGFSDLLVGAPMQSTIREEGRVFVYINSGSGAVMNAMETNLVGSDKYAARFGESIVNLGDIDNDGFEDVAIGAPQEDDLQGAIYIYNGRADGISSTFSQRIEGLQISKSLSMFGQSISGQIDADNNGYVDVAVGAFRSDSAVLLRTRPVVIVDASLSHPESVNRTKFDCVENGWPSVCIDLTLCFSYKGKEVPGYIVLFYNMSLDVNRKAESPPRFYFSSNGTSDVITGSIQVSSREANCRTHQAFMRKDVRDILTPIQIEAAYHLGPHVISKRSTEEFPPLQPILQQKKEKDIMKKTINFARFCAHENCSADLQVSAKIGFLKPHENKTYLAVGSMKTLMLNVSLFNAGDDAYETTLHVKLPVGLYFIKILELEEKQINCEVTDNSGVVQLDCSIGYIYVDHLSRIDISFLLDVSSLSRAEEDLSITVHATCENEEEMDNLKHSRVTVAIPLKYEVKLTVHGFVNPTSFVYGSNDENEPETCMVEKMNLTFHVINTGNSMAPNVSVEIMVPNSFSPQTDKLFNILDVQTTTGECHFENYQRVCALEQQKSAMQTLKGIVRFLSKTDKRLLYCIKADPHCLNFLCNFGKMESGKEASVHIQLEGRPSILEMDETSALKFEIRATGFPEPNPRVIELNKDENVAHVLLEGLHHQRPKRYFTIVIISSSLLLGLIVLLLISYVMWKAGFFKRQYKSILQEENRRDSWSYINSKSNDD
T1 sequence (P26010 20-798): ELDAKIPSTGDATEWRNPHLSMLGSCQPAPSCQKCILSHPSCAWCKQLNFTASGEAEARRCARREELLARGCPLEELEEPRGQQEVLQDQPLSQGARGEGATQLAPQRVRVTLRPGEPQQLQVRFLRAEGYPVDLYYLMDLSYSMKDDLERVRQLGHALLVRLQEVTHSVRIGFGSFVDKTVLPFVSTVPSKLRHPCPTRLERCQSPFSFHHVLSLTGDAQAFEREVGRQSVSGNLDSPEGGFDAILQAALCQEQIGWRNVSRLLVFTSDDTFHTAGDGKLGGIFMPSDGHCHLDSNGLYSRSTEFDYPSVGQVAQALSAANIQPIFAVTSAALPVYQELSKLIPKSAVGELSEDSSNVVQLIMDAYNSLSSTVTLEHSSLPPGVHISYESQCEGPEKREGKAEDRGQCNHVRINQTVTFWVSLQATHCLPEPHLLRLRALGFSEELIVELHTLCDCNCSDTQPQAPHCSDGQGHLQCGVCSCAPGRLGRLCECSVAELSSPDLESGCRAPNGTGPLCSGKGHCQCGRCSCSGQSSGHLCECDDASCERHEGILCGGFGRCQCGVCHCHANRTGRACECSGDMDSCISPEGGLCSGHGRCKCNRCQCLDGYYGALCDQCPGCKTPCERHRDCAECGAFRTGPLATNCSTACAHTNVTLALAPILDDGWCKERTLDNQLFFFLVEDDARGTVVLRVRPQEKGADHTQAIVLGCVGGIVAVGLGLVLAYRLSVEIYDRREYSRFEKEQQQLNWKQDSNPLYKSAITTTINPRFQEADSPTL
Protocol: The capacity of a test substance antagonistic to the binding of lymphoma cell strain RPMI-8866 of human B cells, known to express integrin α4β7, to VCAM-1 was determined.
(§1) 100 μl/well of a solution (500 ng/ml) of recombinant human VCAM-1 (R & D systems) solution diluted with buffer A (0.1 M NaHCO3, pH 9.6) was added to a micro titer plate having 96 wells (Nunc Maxisorp). After the incubation at 4° C. overnight, unbound VCAM-1 was removed by washing once with PBS. After completion of the washing, a buffer (buffer B) obtained by diluting Block Ace (Dainippon Pharmaceutical Co., Ltd.) with PBS to 1/4 concentration was added in an amount of 150 μl/well. After the incubation at room temperature for 1 hour, buffer B was removed and the plate was washed with PBS once.
RPMI-8866 cells were washed with DMEM twice and incubated in Dulbecco modified Eagle medium containing 10 μg/ml of Calcein-AM (Wako Pure Chemical Industries, Ltd.) (SIGMA, hereinafter referred to as “DMEM”) in dark place at 37° C. for 30 minutes to label with fluorescence. The cells were again suspended in a binding buffer (20 mM HEPES, DMEM containing 0.1% BSA) containing 4 mM of MnCl2.
(§2) 50 μl of a test substance of various concentrations obtained by the dilution with the binding buffer was added to the plate. Immediately thereafter, 50 μl (final volume: 100 μl/well) of the fluorescent RPMI-8866 cells (4×10^6 cells/ml) were added thereto, and they were incubated in dark place at room temperature for 30 minutes. After the shaking on a plate shaker (IKA MTS-4) at 800 rpm for 30 seconds, the solution was immediately removed to remove the unbound cells. The fluorescence quantity of the bound cells remaining in the wells was determined with a fluorescent plate reader (Wallac 1420 ARVO multi-label counter) (filter excitation wave length: 485 nm, emission wave length: 535 nm). The fluorescent strength thus obtained is proportional to the number of RPMI-8866 cells bound to VCAM-1 and remaining on the plate. The binding rate of each test material in various concentrations was determined while the fluorescent strength of the test material-free well was determined to be 100%.

[2] = molecular target: T2, integrin α4β1 (Homo sapiens, UniProt P05556+P13612); assay: Assessment of VCAM-1/α4β1 binding antagonist activity (Jurkat cells binding to VCAM-1); format: cell-based; conditions: Jurkat human T cells binding to recombinant human VCAM-1; read-out: integrin VCAM/α4 binding antagonistic activity (IC50) α4β1
T2 construct: cell strain Jurkat (ATCC TIB-152) of human T cells, known to express integrin α4β1; endogenous in cells; host or cells: Jurkat (ATCC TIB-152), human T cells
T2 sequence (P05556 21-798, one chain of several): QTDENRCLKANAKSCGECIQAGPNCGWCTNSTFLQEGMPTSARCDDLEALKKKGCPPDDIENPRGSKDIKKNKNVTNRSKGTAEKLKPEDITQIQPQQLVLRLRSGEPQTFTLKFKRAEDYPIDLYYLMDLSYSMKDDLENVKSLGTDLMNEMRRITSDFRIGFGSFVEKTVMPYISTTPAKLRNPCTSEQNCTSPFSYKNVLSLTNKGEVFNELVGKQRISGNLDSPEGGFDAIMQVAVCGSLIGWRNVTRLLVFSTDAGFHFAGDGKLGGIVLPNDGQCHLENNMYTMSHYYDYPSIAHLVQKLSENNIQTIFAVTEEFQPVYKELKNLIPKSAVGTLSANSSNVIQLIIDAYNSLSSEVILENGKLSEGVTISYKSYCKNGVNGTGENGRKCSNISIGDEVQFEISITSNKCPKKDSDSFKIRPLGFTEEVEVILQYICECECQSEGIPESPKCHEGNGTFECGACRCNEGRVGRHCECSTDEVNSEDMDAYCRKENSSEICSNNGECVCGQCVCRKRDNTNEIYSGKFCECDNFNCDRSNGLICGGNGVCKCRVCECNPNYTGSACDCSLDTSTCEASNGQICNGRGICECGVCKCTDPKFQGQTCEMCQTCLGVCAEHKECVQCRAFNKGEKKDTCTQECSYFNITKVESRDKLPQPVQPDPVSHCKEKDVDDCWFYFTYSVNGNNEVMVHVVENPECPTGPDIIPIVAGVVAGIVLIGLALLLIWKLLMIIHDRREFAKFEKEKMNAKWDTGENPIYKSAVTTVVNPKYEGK
Protocol: The capacity of a test substance antagonistic to the binding of cell strain Jurkat (ATCC TIB-152) of human T cells, known to express integrin α4β1, to VCAM-1 was determined.
as §1
Jurkat cells were washed with Dulbecco modified Eagle medium (SIGMA, hereinafter referred to as “DMEM”) twice and then incubated in DMEM containing 10 μg/ml of Calcein-AM (Wako Pure Chemical Industries, Ltd.) at 37° C. in dark place for 30 minutes to label with fluorescence. The cells were again suspended in a binding buffer (20 mM HEPES, DMEM containing 0.1% BSA).
as §2, with “Jurkat” for “RPMI-8866”

| IC50 [1] [nM] | IC50 [2] [nM] | SMILES |
| --- | --- | --- |
| 31.6 | 1070 | CCC(C)n1c(=O)n(-c2ccc(C[C@H](NC(=O)c3c(Cl)cccc3Cl)C(=O)O)cc2)c(=O)c2cc([N+](=O)[O-])ccc21 (stereo partly drawn) [compound 58] |
| 7.1 | 120 | Cn1c(=O)n(-c2ccc(C[C@H](NC(=O)c3c(Cl)cccc3C(F)(F)F)C(=O)O)cc2)c(=O)c2ccccc21 [compound 164] |
| 5.7 | 1340 | CCOc1nc2ccc(F)cc2c(=O)n1-c1ccc(C[C@H](NC(=O)c2c(Cl)cccc2Cl)C(=O)O)cc1 [compound 92] |
| 0.2 | 34 | Cc1cccc(Cl)c1C(=O)N[C@@H](Cc1ccc(-n2c(=O)c3ccccc3n(C)c2=O)cc1)C(=O)O [Reference Example 162] |
| 36 | 760 | O=C(N[C@@H](Cc1ccc(-n2c(=O)c3ccccc3n(Cc3ccc(Cl)c(Cl)c3)c2=O)cc1)C(=O)O)c1c(Cl)cccc1Cl [compound 115] |
| 2.4 | 11 | CN1C(=O)N(c2ccc(C[C@H](NC(=O)c3c(Cl)cccc3Cl)C(=O)O)cc2)S(=O)(=O)c2ccc(C(F)(F)F)cc21 [compound 100] |
| 4.1 | 55 | Cn1c(=O)n(-c2ccc(C[C@H](NC(=O)c3c(Cl)cccc3Cl)C(=O)O)cc2)c(=O)c2cc(N3CCCC3)ccc21 [compound 110] |
| 25 | 230 | O=C(N[C@@H](Cc1ccc(-n2nnc3ccc(F)cc3c2=O)cc1)C(=O)O)c1c(Cl)cccc1Cl [compound 85] |
| 3.3 | 80 | N#CCn1c(=O)n(-c2ccc(C[C@H](NC(=O)c3c(Cl)cccc3Cl)C(=O)O)cc2)c(=O)c2ccccc21 [Example 6] |
| 70 | 1580 | CC(C)CNc1nc2ccccc2c(=O)n1-c1ccc(C[C@H](NC(=O)c2c(Cl)cccc2Cl)C(=O)O)cc1 [compound 126] |
| 4.3 | 56 | CCN(C)c1ccc2c(c1)c(=O)n(-c1ccc(C[C@H](NC(=O)c3c(Cl)cccc3Cl)C(=O)O)cc1)c(=O)n2C [compound 109] |
| 76.4 | 2020 | CCN(C)c1nc2ccccc2c(=O)n1-c1ccc(C[C@H](NC(=O)c2c(Cl)cccc2Cl)C(=O)O)cc1 [compound 129] |
| 13 | 192 | O=C(N[C@@H](Cc1ccc(-n2c(=O)[nH]c3c(Cl)ccc(Cl)c3c2=O)cc1)C(=O)O)c1c(Cl)cccc1Cl [compound 76] |
| 14 | 109 | O=C(N[C@@H](Cc1ccc(-n2c(=O)c3ccccc3n(Cc3c(F)cccc3Cl)c2=O)cc1)C(=O)O)c1c(Cl)cccc1Cl [compound 121] |
| 2.7 | 41 | Cc1cccc2nnn(-c3ccc(C[C@H](NC(=O)c4c(Cl)cccc4Cl)C(=O)O)cc3)c(=O)c12 [compound 89] |
| 16 | 385 | Cc1ccc(Cn2c(=O)n(-c3ccc(C[C@H](NC(=O)c4c(Cl)cccc4Cl)C(=O)O)cc3)c(=O)c3ccccc32)cc1 [compound 118] |
| 0.8 | 14 | COCC(=O)Nc1ccc2c(c1)c(=O)n(-c1ccc(C[C@H](NC(=O)c3c(Cl)cccc3Cl)C(=O)O)cc1)c(=O)n2C [compound 105] |
| 0.6 | 11 | Cn1c(=O)n(-c2ccc(C[C@H](NC(=O)c3c(Cl)cccc3Br)C(=O)O)cc2)c(=O)c2ccccc21 [compound 165] |
| 21 | 440 | O=C(N[C@@H](Cc1ccc(-n2c(=O)c3ccccc3n(Cc3ccccc3Cl)c2=O)cc1)C(=O)O)c1c(Cl)cccc1Cl [compound 119] |
| 27 | 190 | O=C(N[C@@H](Cc1ccc(-n2c(=O)c3ccccc3n(Cc3c(Cl)cccc3Cl)c2=O)cc1)C(=O)O)c1c(Cl)cccc1Cl [Reference Example 114] |
| 18 | 440 | O=C(N[C@@H](Cc1ccc(-n2c(=O)[nH]c3ncccc3c2=O)cc1)C(=O)O)c1c(Cl)cccc1Cl [compound 79] |
| 2.8 | 44 | Cn1c(=O)n(-c2ccc(C[C@H](NC(=O)c3c(Cl)cccc3Cl)C(=O)O)cc2)c(=O)c2cc(NC(=O)C(C)(C)C)ccc21 [compound 106] |
| 6 | 1150 | CCOc1nc2cccc(C)c2c(=O)n1-c1ccc(C[C@H](NC(=O)c2c(Cl)cccc2Cl)C(=O)O)cc1 [compound 94] |
| 0.6 | 310 | O=C(N[C@@H](Cc1ccc(-n2c(=O)c3ccccc3n(Cc3ccccc3)c2=O)cc1)C(=O)O)c1c(Cl)cccc1Cl [compound 122] |
